These results are taken from PubChem BioAssay AID1963980 (Molecular Pharmacology Branch, DTP, NCI, 2024).

pIC50: −log10 of the molar value. Where “and” joins values, the source holds several entries; their conditions need not be identical. Equal entries are not always repeated.

This assay deals with 475296-252-R-J1-PDC spheroid viability. In words: Anticancer human tumor 475296-252-R-J1-PDC patient-derived rectal carcinoma cell line growth inhibition [PI3K]. Conditions: spheroids with HUVEC and MSC; for viability, T/C: stronger effect = lower value. The method, boiled down: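 Targeted small molecules plus PI3K inhibitors, half-log dose series from Cmax (default top 10 microM), were applied to heterotypic spheroids of cancer cells with HUVEC and MSCs. Viability indicated growth inhibition.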
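Note: spheroids exposed to agents for seven days before readout.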

Consider `CC(=O)c1c(C)c2cnc(Nc3ccc(N4CCNCC4)cn3)nc2n(C2CCCC2)c1=O` + CC(Nc1ncnc2nc[nH]c12)c1cc2cccc(Cl)c2c(=O)n1-c1ccccc1, for which the pIC50 is less than 7.00 (curve of first compound, second compound 0.0316 µM); less than 7.00 (curve of first compound, second compound 0.1 µM); less than 7.00 (curve of first compound, second compound 0.316 µM); less than 7.00 (curve of first compound, second compound 1 µM); less than 7.00 (curve of first compound, second compound 3.16 µM); less than 7.00 (curve of first compound, second compound 10 µM). The viability, T/C runs as follows: (second compound 0.0316 µM, first compound 0.000316 µM) 91.8%; (second compound 0.0316 µM, first compound 0.001 µM) 91.4%; (second compound 0.0316 µM, first compound 0.00316 µM) 87.8%; (second compound 0.0316 µM, first compound 0.01 µM) 94.2%; (second compound 0.0316 µM, first compound 0.0316 µM) 96%; (second compound 0.0316 µM, first compound 0.1 µM) 102%. The viability, T/C (second compound 0.1 µM, first compound 0.000316 µM) is 97.4%; the viability, T/C (second compound 0.1 µM, first compound 0.001 µM) was 106%; the viability, T/C (second compound 0.1 µM, first compound 0.00316 µM) is 94.4%; the viability, T/C (second compound 0.1 µM, first compound 0.01 µM) is 85.8%; the viability, T/C (second compound 0.1 µM, first compound 0.0316 µM) is 105%; the viability, T/C (second compound 0.1 µM, first compound 0.1 µM) was 112%. Besides, the viability, T/C reads like this: (second compound 0.316 µM, first compound 0.000316 µM) 105%; (second compound 0.316 µM, first compound 0.001 µM) 89.7%; (second compound 0.316 µM, first compound 0.00316 µM) 104%; (second compound 0.316 µM, first compound 0.01 µM) 97.2%; (second compound 0.316 µM, first compound 0.0316 µM) 104%; (second compound 0.316 µM, first compound 0.1 µM) 101%. In addition, the viability, T/C (second compound 1 µM, first compound 0.000316 µM) was 99.9%; the viability, T/C (second compound 1 µM, first compound 0.001 µM) is 109%; the viability, T/C (second compound 1 µM, first compound 0.00316 µM) was 84.1%; the viability, T/C (second compound 1 µM, first compound 0.01 µM) is 95.3%; the viability, T/C (second compound 1 µM, first compound 0.0316 µM) was 107%; the viability, T/C (second compound 1 µM, first compound 0.1 µM) was 112%. In addition, the viability, T/C is 99.2% (second compound 3.16 µM, first compound 0.000316 µM); 86.5% (second compound 3.16 µM, first compound 0.001 µM); 100% (second compound 3.16 µM, first compound 0.00316 µM); 97.7% (second compound 3.16 µM, first compound 0.01 µM); 105% (second compound 3.16 µM, first compound 0.0316 µM); 104% (second compound 3.16 µM, first compound 0.1 µM). Besides, the viability, T/C was 91.4% (second compound 10 µM, first compound 0.000316 µM); 94.8% (second compound 10 µM, first compound 0.001 µM); 89.9% (second compound 10 µM, first compound 0.00316 µM); 97.4% (second compound 10 µM, first compound 0.01 µM); 99.8% (second compound 10 µM, first compound 0.0316 µM); 86.6% (second compound 10 µM, first compound 0.1 µM).

`CC1(C)CCC(CN2CCN(c3ccc(C(=O)NS(=O)(=O)c4ccc(NCC5CCOCC5)c([N+](=O)[O-])c4)c(Oc4cnc5[nH]ccc5c4)c3)CC2)=C(c2ccc(Cl)cc2)C1`: the viability, T/C (compound 0.0316 µM) was 97.2% and 102% (2×) and 99.9%; the viability, T/C (compound 0.1 µM) is 97% [middle of 4 runs]; the viability, T/C (compound 0.316 µM) was 101% [middle of 4 runs]; the viability, T/C (compound 1 µM) is 101% [middle of 4 runs]; the viability, T/C (compound 3.16 µM) was 101% (2×) and 94.9% and 88%. In addition, the pIC50 (curve of compound) is less than 5.00.

A word on the pIC50: it is −log10 of the IC50, conventionally taken in molar units. Broadly, the viability, T/C is the ratio of treated to control.
